Structures are written as SMILES.

For the assay, the target named is T1, Human SGLT2 (hSGLT2) (Homo sapiens, UniProt P31639).
T1 construct: expressed in transfected cells
T1 sequence (P31639 1-672): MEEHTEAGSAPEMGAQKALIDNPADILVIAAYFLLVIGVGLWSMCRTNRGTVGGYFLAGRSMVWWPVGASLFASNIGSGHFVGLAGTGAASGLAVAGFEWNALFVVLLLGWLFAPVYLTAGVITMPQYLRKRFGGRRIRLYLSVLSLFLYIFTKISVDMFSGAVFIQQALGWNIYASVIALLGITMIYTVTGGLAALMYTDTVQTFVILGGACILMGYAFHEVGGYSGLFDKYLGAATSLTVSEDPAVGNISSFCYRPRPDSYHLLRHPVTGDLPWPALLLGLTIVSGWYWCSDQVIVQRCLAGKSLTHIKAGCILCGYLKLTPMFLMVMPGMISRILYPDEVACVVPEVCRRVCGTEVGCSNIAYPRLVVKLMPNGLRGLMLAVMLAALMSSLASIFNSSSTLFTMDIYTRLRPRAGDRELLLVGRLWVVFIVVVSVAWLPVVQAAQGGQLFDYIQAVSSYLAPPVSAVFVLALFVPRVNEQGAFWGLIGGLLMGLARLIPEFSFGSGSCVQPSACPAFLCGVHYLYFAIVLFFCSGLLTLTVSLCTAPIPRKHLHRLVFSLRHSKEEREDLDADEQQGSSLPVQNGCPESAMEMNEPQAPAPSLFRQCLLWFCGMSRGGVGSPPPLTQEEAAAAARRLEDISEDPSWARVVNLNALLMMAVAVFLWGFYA
Description: Sodium-dependent glucose transport (14C-AMG uptake) assay in CHO cells stably expressing hSGLT2. The class given is cell-based. Conditions: CHO cells expressing hSGLT2, 14C-AMG uptake, 37° C. for 2 h; single determinations; read-out: hSGLT2 Inhibitory Activity IC50. From the text:
Cloning and Cell Line Construction for Human SGLT2
Human SGLT2 (hSGLT2) gene was amplified by PCR from cDNA-Human Adult Normal Tissue Kidney (Invitrogen). The hSGLT2 sequence was cloned into pcDNA3.1(+) for mammalian expression and were stably transfected into chinese hamster ovary (CHO) cells. SGLT2-expressing clones were selected based on resistance to G418 antibiotic (Geneticin) and activity in the ^14C-α-methyl-D-glucopyranoside (^14C-AMG) uptake assay.
Inhibitory Effects on Human SGLT2 Activities
For sodium-dependent glucose transport assay, cells expressing hSGLT2 were seeded into a 96-well culture plate at a density of 5×10^4 cells/well in RPMI medium 1640 containing 10% fetal bovine serum. The cells were used 1 day after plating. They were incubated in pretreatment buffer (10 mM HEPES, 5 mM Tris, 140 mM choline chloride, 2 mM KCl, 1 mM CaCl2, and 1 mM MgCl2, pH 7.4) at 37° C. for 10 min. They were then incubated in uptake buffer (10 mM HEPES, 5 mM Tris, 140 mM NaCl, 2 mM KCl, 1 mM CaCl2, 1 mM MgCl2, and 1 mM ^14C-nonlabeled AMG, pH 7.4) containing ^14C-labeled (8 μM) and inhibitor or dimethylsulfoxide (DMSO) vehicle at 37° C. for 2 h. Cells were washed twice with washing buffer (pretreatment buffer containing 10 mM AMG at room temperature) and then the radioactivity was measured using a liquid scintillation counter. IC50 was determined by nonlinear regression analysis using GraphPad PRISM [Katsuno, K. et al. J. Pharmacol. Exp. Ther. 2007, 320, 323-330; Han, S. et al. Deabetes, 2008, 57, 1723-1729].
As to `C/C=C(\C)c1cnc(Cc2cc([C@@H]3O[C@H](CO)[C@@H](O)[C@H](O)[C@H]3O)ccc2Cl)s1` [Example 18, (2S,3R,4R,5S,6R,E)-2-(3-((5-(but-2-en-2-yl)thiazol-2-yl)methyl)-4-chlorophenyl)-6-(hydroxymethyl)-tetrahydro-2H-pyran-3,4,5-triol], the IC50 was 4.69 nM.

Take `COc1c(Cc2ncc(-c3cccs3)s2)cc([C@@H]2O[C@H](CO)[C@@H](O)[C@H](O)[C@H]2O)c2ccccc12` [Example 96, (2R,3S,4R,5R,6S)-2-(Hydroxymethyl)-6-(4-methoxy-3-((5-(thiophen-2-yl)thiazol-2-yl)methyl)naphthalen-1-yl)-tetrahydro-2H-pyran-3,4,5-triol]: the IC50 worked out at 4.94 nM.

As for `OC[C@H]1O[C@@H](c2ccc(C(F)(F)F)c(Cc3ncc(-c4ccc(F)cc4)s3)c2)[C@H](O)[C@@H](O)[C@@H]1O` [Example 52, (2S,3R,4R,5S,6R)-2-(3-((5-(4-Fluorophenyl)thiazol-2-yl)methyl)-4-(trifluoromethyl)phenyl)-6-(hydroxymethyl)tetrahydro-2H-pyran-3,4,5-triol], the IC50 turned out to be 87.2 nM.

For the compound `OC[C@H]1O[C@@H](c2cc(Cc3ncc(-c4ccoc4)s3)c(Cl)cc2F)[C@H](O)[C@@H](O)[C@@H]1O` [Example 54, (2S,3R,4R,5S,6R)-2-(4-Chloro-2-fluoro-5-((5-(furan-3-yl)thiazol-2-yl)methyl)phenyl)-6-(hydroxymethyl)tetrahydro-2H-pyran-3,4,5-triol], the 50% inhibitory concentration (IC50) came out at 5.35 nM.

Regarding `COc1cc(Cl)c(Cc2ncc(-c3ccccc3)s2)cc1[C@@H]1O[C@H](CO)[C@@H](O)[C@H](O)[C@H]1O` [Example 73, (2S,3R,4R,5S,6R)-2-(4-Chloro-2-methoxy-5-((5-phenylthiazol-2-yl)methyl)phenyl)-6-(hydroxymethyl)tetrahydro-2H-pyran-3,4,5-triol], the 50% inhibitory concentration (IC50) stood at 2.01 nM.

Consider `OC[C@H]1O[C@@H](c2ccc(Cl)c(Cc3ncc(-c4ccco4)s3)c2)[C@H](O)[C@@H](O)[C@@H]1O` [Example 5, (2S,3R,4R,5S,6R)-2-(4-Chloro-3-((5-(furan-2-yl)thiazol-2-yl)methyl)phenyl)-6-(hydroxymethyl)-tetrahydro-2H-pyran-3,4,5-triol], for which the IC50 was 1.75 nM.

Consider `OC[C@H]1O[C@@H](c2ccc(Cl)c(Cc3ncc(-c4ccoc4)s3)c2)[C@H](O)[C@@H](O)[C@@H]1O` [Example 6, (2S,3R,4R,5S,6R)-2-(4-Chloro-3-((5-(furan-3-yl)thiazol-2-yl)methyl)phenyl)-6-(hydroxymethyl)-tetrahydro-2H-pyran-3,4,5-triol], for which the IC50 came out at 6.25 nM.

As for `OC[C@H]1O[C@@H](c2cc(Cc3ncc(-c4cccs4)s3)cc3ccccc23)[C@H](O)[C@@H](O)[C@@H]1O` [Example 94, (2R,3S,4R,5R,6S)-2-(Hydroxymethyl)-6-(3-((5-(thiophen-2-yl)thiazol-2-yl)methyl)naphthalen-1-yl)tetrahydro-2H-pyran-3,4,5-triol], the IC50 amounted to 5.98 nM.

As to `COc1cc(Cl)c(Cc2ncc(-c3ccsc3)s2)cc1[C@@H]1O[C@H](CO)[C@@H](O)[C@H](O)[C@H]1O` [Example 72, (2S,3R,4R,5S,6R)-2-(4-Chloro-2-methoxy-5-((5-(thiophen-3-yl)thiazol-2-yl)methyl)phenyl)-6-(hydroxymethyl)tetrahydro-2,1-pyran-3,4,5-triol], the IC50 was 1.29 nM.

For `CCOc1cnc(Cc2cc([C@@H]3O[C@H](CO)[C@@H](O)[C@H](O)[C@H]3O)c3ccccc3c2O)s1` [Example 128, (2S,3R,4R,5S,6R)-2-(3-((5-Ethoxythiazol-2-yl)methyl)-4-hydroxynaphthalen-1-yl)-6-(hydroxymethyl)-tetrahydro-2H-pyran-3,4,5-triol], the half-inhibitory concentration (IC50) came to 116 nM.

Take `OC[C@H]1O[C@@H](c2ccc(Cl)c(Cc3ncc(-c4nccs4)s3)c2)[C@H](O)[C@@H](O)[C@@H]1O` [Example 9, (2S,3R,4R,5S,6R)-2-(3-(2,5′-Bithiazol-2′-ylmethyl)-4-chlorophenyl)-6-(hydroxymethyl)-tetrahydro-2H-pyran-3,4,5-triol]: the IC50 came to 7.48 nM.

As to `OC[C@H]1O[C@@H](c2ccc(Cl)c(Cc3cnc(-c4ccno4)s3)c2)[C@H](O)[C@@H](O)[C@@H]1O` [Example 192, (2S,3R,4R,5S,6R)-2-(4-Chloro-3-((2-(isoxazol-5-yl)thiazol-5-yl)methyl)phenyl)-6-(hydroxymethyl)tetrahydro-2H-pyran-3,4,5-triol], the IC50 came out at 20.2 nM.

`CCCSc1ncc(Cc2cc([C@@H]3O[C@H](CO)[C@@H](O)[C@H](O)[C@H]3O)ccc2Cl)s1` [Example 198, (2S,3R,4R,5S,6R)-2-(4-Chloro-3-((2-(propylthio)thiazol-5-yl)methyl)phenyl)-6-(hydroxymethyl)tetrahydro-2H-pyran-3,4,5-triol]: the IC50 was found to be 15.4 nM.

For `OC[C@H]1O[C@@H](c2ccc(Cl)c(C3(c4ncc(-c5ccco5)s4)CC3)c2)[C@H](O)[C@@H](O)[C@@H]1O` [Example 3, (2S,3R,4R,5S,6R)-2-(4-Chloro-3-(1-(5-(furan-2-yl)thiazol-2-yl)cyclopropyl)phenyl)-6-(hydroxymethyl)-tetrahydro-2H-pyran-3,4,5-triol], the IC50 was determined as 47.1 nM.

Consider `C=CCOc1cc(Cl)c(Cc2ncc(-c3ccoc3)s2)cc1[C@@H]1O[C@H](CO)[C@@H](O)[C@H](O)[C@H]1O` [Example 84, (2S,3R,4R,5S,6R)-2-(2-(Allyloxy)-4-chloro-5-((5-(furan-3-yl)thiazol-2-yl)methyl)phenyl)-6-(hydroxymethyl)tetrahydro-2H-pyran-3,4,5-triol], for which the 50% inhibitory concentration (IC50) is 1.54 nM.

For `OC[C@H]1O[C@@H](c2ccc(Cl)c(Cc3ncc(-c4ccsc4)s3)c2)[C@H](O)[C@@H](O)[C@@H]1O` [Example 1, (2S,3R,4R,5S,6R)-2-(4-Chloro-3-((5-(thiophen-3-yl)thiazol-2-yl)methyl)phenyl)-6-(hydroxymethyl)-tetrahydro-2H-pyran-3,4,5-triol], the IC50 turned out to be 2 nM.

Regarding `OC[C@H]1O[C@@H](c2cc(Cc3ncc(-c4ccsc4)s3)c(Cl)cc2F)[C@H](O)[C@@H](O)[C@@H]1O` [Example 56, (2S,3R,4R,5S,6R)-2-(4-Chloro-2-fluoro-5-((5-(thiophen-3-yl)thiazol-2-yl)methyl)phenyl)-6-(hydroxymethyl)tetrahydro-2H-pyran-3,4,5-triol], the IC50 was 2.12 nM.

`OC[C@H]1O[C@@H](c2ccc(Cl)c(Cc3ncc(-c4cccs4)s3)c2)[C@H](O)[C@@H](O)[C@@H]1O` [Example 7, (2S,3R,4R,5S,6R)-2-(4-Chloro-3-((5-(thiophen-2-yl)thiazol-2-yl)methyl)phenyl)-6-(hydroxymethyl)tetrahydro-2H-pyran-3,4,5-triol]: the IC50 was 3.2 nM.

On to `C=CCOc1cc(Cl)c(Cc2ncc(-c3ccccc3)s2)cc1[C@@H]1O[C@H](CO)[C@@H](O)[C@H](O)[C@H]1O` [Example 87, (2S,3R,4R,5S,6R)-2-(2-(Allyloxy)-4-chloro-5-((5-phenylthiazol-2-yl)methyl)phenyl)-6-(hydroxymethyl)tetrahydro-2H-pyran-3,4,5-triol], for which the IC50 is 3.38 nM.

`CCOc1cc(Cl)c(Cc2ncc(-c3ccccc3)s2)cc1[C@@H]1O[C@H](CO)[C@@H](O)[C@H](O)[C@H]1O` [Example 81, (2S,3R,4R,5S,6R)-2-(4-Chloro-2-ethoxy-5-((5-phenylthiazol-2-yl)methyl)phenyl)-6-(hydroxymethyl)tetrahydro-2H-pyran-3,4,5-triol]: the IC50 is 2.87 nM.

In the case of `C=CCOc1cc(Cl)c(Cc2ncc(-c3ccsc3)s2)cc1[C@@H]1O[C@H](CO)[C@@H](O)[C@H](O)[C@H]1O` [Example 86, (2S,3R,4R,5S,6R)-2-(2-(Allyloxy)-4-chloro-5-((5-(thiophen-3-yl)thiazol-2-yl)methyl)phenyl)-6-(hydroxymethyl)tetrahydro-2H-pyran-3,4,5-triol], the IC50 turned out to be 0.934 nM.

The term IC50 denotes the midpoint of a concentration-inhibition curve.

The values are drawn from patent publication US8586550B2, “Thiazole derivatives as SGLT2 inhibitors and pharmaceutical composition comprising same” (Green Cross Corporation, priority 2010, dated 2013).
